Assays:
[1] = system: LNCaP tumor-transplanted mouse; assay: Internal radioactivity distribution using LNCaP tumor-transplanted mouse; format: in vivo
Description: (§1) The animal test was performed in compliance with the guidelines of Kyoto University Animal Experiment Committee. Male CB17/IcrJcl-Prkdc^scid mice were purchased from CLEA Japan, Inc. The animals were kept under 12 h/12 h, day/night cycle conditions and fed ad libitum with food and water. LNCaP cells (1.0×10^7 cells/mouse) or PC-3 cells (1.0×10^7 cells/mouse) were suspended in a mixture of PBS and Matrigel manufactured by Corning Life Sciences (1:1, 150 μL) and the suspension was subcutaneously transplanted to the right shoulder of mice under isoflurane anesthesia. Thereafter, the mice were kept for 40 to 60 days.
LNCaP or PC-3 tumor-implanted mice were administered saline solutions (185 kBq, 100 μL) of [^111In]In-PSMA-DA1 or [^111In]In-PSMA-DB from the tail vein (n=3 each). Mice were euthanized 1, 4, 24, 48, 96, and 192 hours after administration. Thereafter, blood and each organ were recovered, and the mass and radioactivity of the organs were measured.
The percentage (% ID) of the radioactivity amount to the administered radioactivity amount (injected dose) is shown as the value (% ID/g) divided by the blood mass or the organ mass (g).
LNCaP tumor-implanted mice prepared by the same method as in Example 1-1 were administered a saline solution (241 kBq/100 μL) of [^111In]In-PtDA from the tail vein (n=3). Mice were euthanized 1, 24, and 48 hours after administration. Thereafter, blood and each organ were recovered, and the mass and radioactivity of the organs were measured.
LNCaP tumor-implanted mice prepared by the same method as in Example 1-1 were administered a saline solution (259 kBq/100 μL each) of each of the radiolabeled compounds in Examples 3-1 to 3-3 or Comparative Examples 2-1 to 2-2 from the tail vein (n=2 to 3). Mice were euthanized 1, 4, 24, 48, 96, and 192 hours after administration. Thereafter, blood and each organ were recovered, and the mass and radioactivity of the organs were measured.
as §1, with “LNCaP cells (4.3×10^6 cells/mouse) or” for “LNCaP cells (1.0×10^7 cells/mouse) or”, “PC-3 cells (3.3×10^6 cells/mouse) were” for “PC-3 cells (1.0×10^7 cells/mouse) were”, “shoulder of CB17/IcrJcl-Prkdc^scid mice under” for “shoulder of mice under”
Mice were euthanized 1, 4, 24, 48, 96, and 192 hours after administration. Thereafter, blood and each organ were recovered, and the mass and radioactivity of the organs were measured.
The results are shown in Table 12 (Mean value±standard deviation, n=3).

[2] = molecular target: human serum albumin (HSA) (Homo sapiens, UniProt P02768); assay: Evaluation of binding to albumin (HSA solution, PBS control); conditions: left to stand in HSA solution (45 mg/mL)
Description: Thereafter, the reaction liquids were added to a spin column (Sephadex G-100; manufactured by Cytiva), and centrifuged at 1500×g at 4° C. for 2 minutes. After separation, the radioactivity for each of the column and the eluate was measured with a gamma counter.
When a compound to be evaluated binds to albumin to form a composite, the compound passes through the column because of the increased molecular size.
As in Examples described above, PBS and human albumin were used to evaluate binding to albumin.
Thereafter, the reaction liquid was added to a spin column (Sephadex G-50; manufactured by Cytiva), and centrifuged at 1500×g at 4° C. for 2 minutes. After separation, the radioactivity of the column and the eluate was measured with a gamma counter.

Sequence of human serum albumin (HSA) (P02768 25-609): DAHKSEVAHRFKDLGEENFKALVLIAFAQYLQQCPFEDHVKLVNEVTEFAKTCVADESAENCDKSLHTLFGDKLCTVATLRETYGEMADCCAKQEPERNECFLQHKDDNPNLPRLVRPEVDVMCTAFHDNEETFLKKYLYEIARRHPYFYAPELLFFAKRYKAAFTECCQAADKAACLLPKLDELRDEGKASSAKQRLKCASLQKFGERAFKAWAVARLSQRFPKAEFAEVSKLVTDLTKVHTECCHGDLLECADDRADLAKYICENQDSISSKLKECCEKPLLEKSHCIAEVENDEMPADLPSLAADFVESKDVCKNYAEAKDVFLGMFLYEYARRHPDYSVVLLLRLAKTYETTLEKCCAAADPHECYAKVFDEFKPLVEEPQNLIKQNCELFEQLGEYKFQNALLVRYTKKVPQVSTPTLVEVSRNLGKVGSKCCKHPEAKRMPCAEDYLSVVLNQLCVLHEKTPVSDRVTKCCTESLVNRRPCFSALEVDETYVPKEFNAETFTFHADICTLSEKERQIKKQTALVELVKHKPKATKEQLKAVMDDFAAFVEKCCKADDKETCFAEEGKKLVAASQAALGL

Q: What does the source list for `O=C([O-])CN(Cc1cccc(C(=O)[O-])n1)C[C@H](Cc1ccc(NC(=O)CCCCCNC(=O)CCC(=O)NCCCC[C@H](NC(=O)N[C@@H](CCC(=O)O)C(=O)O)C(=O)O)cc1)N(CC(=O)[O-])Cc1cccc(C(=O)[O-])n1.[111In+3]` [[^111In]In-Octapa-1, reference compound]?
A: Blood ([1]; 1 h after administration): 0.48 ± 0.09 % ID/g; Brain ([1]; 1 h after administration): 0.02 ± 0.00 % ID/g; Heart ([1]; 1 h after administration): 0.32 ± 0.08 % ID/g; Intestine ([1]; 1 h after administration): 0.40 ± 0.13 % ID/g; Kidney ([1]; 1 h after administration): 322 ± 42.8 % ID/g; LNCaP Tumor ([1]; 1 h after administration): 9.72 ± 1.65 % ID/g; Liver ([1]; 1 h after administration): 0.36 ± 0.13 % ID/g; Lung ([1]; 1 h after administration): 0.99 ± 0.22 % ID/g; Muscle ([1]; 1 h after administration): 0.20 ± 0.01 % ID/g; Pancreas ([1]; 1 h after administration): 0.62 ± 0.19 % ID/g; Spleen ([1]; 1 h after administration): 10.9 ± 5.59 % ID/g; Stomach (% ID) ([1]; 1 h after administration): 0.08 ± 0.01 % ID; Blood ([1]; 4 h after administration): 0.21 ± 0.18 % ID/g; Brain ([1]; 4 h after administration): 0.02 ± 0.01 % ID/g; Heart ([1]; 4 h after administration): 0.18 ± 0.03 % ID/g; Intestine ([1]; 4 h after administration): 3.50 ± 1.21 % ID/g; Kidney ([1]; 4 h after administration): 112 ± 54.6 % ID/g; LNCaP Tumor ([1]; 4 h after administration): 4.73 ± 0.40 % ID/g; Liver ([1]; 4 h after administration): 0.13 ± 0.02 % ID/g; Lung ([1]; 4 h after administration): 0.23 ± 0.10 % ID/g; Muscle ([1]; 4 h after administration): 0.10 ± 0.02 % ID/g; Pancreas ([1]; 4 h after administration): 0.24 ± 0.07 % ID/g; Spleen ([1]; 4 h after administration): 3.55 ± 1.75 % ID/g; Stomach (% ID) ([1]; 4 h after administration): 0.37 ± 0.22 % ID; Blood ([1]; 24 h after administration): 0.02 % ID/g; Brain ([1]; 24 h after administration): 0.04 ± 0.04 % ID/g; Heart ([1]; 24 h after administration): 0.04 ± 0.01 % ID/g; Intestine ([1]; 24 h after administration): 0.27 ± 0.08 % ID/g; Kidney ([1]; 24 h after administration): 24.9 ± 10.9 % ID/g; LNCaP Tumor ([1]; 24 h after administration): 2.00 ± 0.61 % ID/g; Liver ([1]; 24 h after administration): 0.06 ± 0.01 % ID/g; Lung ([1]; 24 h after administration): 0.13 ± 0.06 % ID/g; Muscle ([1]; 24 h after administration): 0.01 ± 0.01 % ID/g; Pancreas ([1]; 24 h after administration): 0.12 ± 0.03 % ID/g; Spleen ([1]; 24 h after administration): 2.48 ± 1.44 % ID/g; Stomach (% ID) ([1]; 24 h after administration): 0.03 ± 0.01 % ID; Blood ([1]; 48 h after administration): 0.00 ± 0.00 % ID/g; Brain ([1]; 48 h after administration): 0.01 ± 0.00 % ID/g; Heart ([1]; 48 h after administration): 0.02 ± 0.03 % ID/g; Intestine ([1]; 48 h after administration): 0.52 ± 0.33 % ID/g; Kidney ([1]; 48 h after administration): 7.48 ± 1.23 % ID/g; LNCaP Tumor ([1]; 48 h after administration): 0.58 ± 0.11 % ID/g; Liver ([1]; 48 h after administration): 0.04 ± 0.01 % ID/g; Lung ([1]; 48 h after administration): 0.06 ± 0.02 % ID/g; Muscle ([1]; 48 h after administration): 0.01 ± 0.02 % ID/g; Pancreas ([1]; 48 h after administration): 0.05 ± 0.01 % ID/g; Spleen ([1]; 48 h after administration): 1.64 ± 0.53 % ID/g; Stomach (% ID) ([1]; 48 h after administration): 0.07 ± 0.04 % ID; Blood ([1]; 96 h after administration): 0.02 ± 0.01 % ID/g; Brain ([1]; 96 h after administration): 0.01 ± 0.00 % ID/g; Heart ([1]; 96 h after administration): 0.03 ± 0.00 % ID/g; Intestine ([1]; 96 h after administration): 0.13 ± 0.05 % ID/g; Kidney ([1]; 96 h after administration): 7.24 ± 3.00 % ID/g; LNCaP Tumor ([1]; 96 h after administration): 0.72 ± 0.11 % ID/g; Liver ([1]; 96 h after administration): 0.08 ± 0.02 % ID/g; Lung ([1]; 96 h after administration): 0.09 ± 0.03 % ID/g; Muscle ([1]; 96 h after administration): 0.03 ± 0.04 % ID/g; Pancreas ([1]; 96 h after administration): 0.04 ± 0.00 % ID/g; Spleen ([1]; 96 h after administration): 2.06 ± 0.88 % ID/g; Stomach (% ID) ([1]; 96 h after administration): 0.03 ± 0.01 % ID; Blood ([1]; 192 h after administration): 0.00 % ID/g; Brain ([1]; 192 h after administration): 0.01 % ID/g; Heart ([1]; 192 h after administration): 0.01 % ID/g; Intestine ([1]; 192 h after administration): 0.02 % ID/g; Kidney ([1]; 192 h after administration): 2.16 % ID/g; LNCaP Tumor ([1]; 192 h after administration): 0.36 % ID/g; Liver ([1]; 192 h after administration): 0.05 % ID/g; Lung ([1]; 192 h after administration): 0.04 % ID/g; Muscle ([1]; 192 h after administration): 0.02 % ID/g; Pancreas ([1]; 192 h after administration): 0.05 % ID/g; Spleen ([1]; 192 h after administration): 0.85 % ID/g; Stomach (% ID) ([1]; 192 h after administration): 0.01 % ID; radioactivity in the eluate (in words) [2]: low

Reference: patent US20240174622A1, “COMPOUND AND RADIOACTIVE LABELING COMPOUND” (NIHON MEDI-PHYSICS CO., LTD., priority 2021, published 2024)
